In patent publication US5652222A, “Selective inhibition of leukemic cell proliferation by bcr-abl antisense oligonucleotides” (Temple University-of The Commonwealth System of Higher …, priority 1993, dated 1997):

Columns and labels:
Type in all cases: cell-based, human
[1] = test system: Philadelphia chromosome-positive blast cells of CML patients in blast crisis, L-6 (b2a2) type junction; experiment: Colony formation of CML blast crisis patient cells expressing the b2a2 (L-6) junction; conditions: 10 days in semi-solid culture (FIG. 2)
Experimental: Leukemia cells were obtained from the marrow of the posterior iliac crest of five CML patients in blast crisis. The cells were diluted 1:2 in Iscove's modified Dulbecco medium (IMDM) to form a cell suspension. Philadelphia chromosome-positive blast cells were isolated by Ficoll-Hypaque density gradient sedimentation to remove non-mononuclear cells. Accordingly, the bone marrow cell suspension was gently overlayed on a Histopaque density gradient (Sigma Chemical Co., St. Louis, Mo.) in a 2:1 ratio, and then spun down for 30 min. at 1500 rpm and 18° C. Cells remaining in the interface layer after centrifugation were collected using a Pasteur pipet, and washed with IMDM at 1000 rpm and […] for 10 min.
Cells plated into methyl cellulose semisolid media after 7-11 days of culture were recovered from the medium. Total RNA was isolated according to the procedure of Chomczynski et al, Anal. Biochem. 162, 156-159 (1987). The RNA ([…]) isolated from one patient having particularly exuberant cell growth was annealed with the 3' RT-PCR primer GCTTCACACC ATTCCCCATTGT (SEQ ID NO:10) complementary to 22 nucleotides of c-abl exon 2 for 30 minutes at 37° C. Following annealing of the 3' primer, the RNA was reverse transcribed with 500 units of Moloney murine leukemia virus reverse transcriptase at 37° C. for 1 hour. The reaction was stopped and the mixture diluted in 1 x Thermus aquaticus (Taq) polymerase buffer. A 5' primer, the 22 nucleotide oligomer CACAGCATTCCGCTGACCATCA (SEQ ID NO: 11) complementary to bcr exon 2 and additional c-abl exon 2 3' primer were added to a final concentration of 2 ng/μl each with 2.5 units of Taq polymerase for amplification of the cDNA fragments. Sixty cycles of PCR were performed in a Perkin Elmer Thermal Cycler by annealing at 55° C., synthesizing at 72° C. and denaturing at 95° C. The amplification product, corresponding to the b2a2 junction, was thereafter separated on a 2% agarose gel. The band containing the bcr-abl fragment was cut out and cleaned according to a standard technique utilizing a GENE-CLEAN™ kit (Bio 101, Inc.), cloned by blunt end ligation in the BLUESCRIPT SK vector (Stratagene Cloning Systems) linearized by SMA I digestion. Several individual clones were then sequenced using the SEQUENASE™ version 2.0 enzyme (United States Biochemical Corp., Cleveland, Ohio), according to the sequence protocol recommended by the manufacturer. Accordingly, the denatured bcr-abl DNA fragments were annealed with specific primers which flank the cloning site in the BLUESCRIPT SK vector, in the presence of SEQUENASE™ reaction buffer for 15 min. at 37° C. The primer-annealed fragments were incubated at room temperature with SEQUENASE™ version 2.0 enzyme and α-S^35 dAT at 37° C. Subsequently, labelled template-primer complexes were transferred to tubes containing A, T, C and G nucleotides (one nucleotide per tube) and incubated 5-30 min. at 37° C. The samples were then loaded on a previously prepared acrylamide gel, and run for approximately 10 hours. The sequencing gel was dryed, and the film exposed O/N. Sequence analysis of several of the individual clones identified the bcr-abl junction as having the cDNA sequence shown in FIG. 1 (SEQ ID NO:1). The arrow in the figure indicates the bcr-abl breakpoint junction, and the box delineates the 18 nucleotides corresponding to the junction, which forms a preferred target sequence for hybridization of antisense oligomer. The junction corresponds precisely to the L-6 type breakpoint reported by Shtivelman et al., Cell 47, 277 (1986), in which the bcr exon 2 is fused to c-abl exon 2.
In a similar manner, L-6 type junctions were identified in the remaining CML blast crisis patients by hybridization of RT-PCR amplification products derived from blast crisis CML RNA using a synthetic 18-mer GAAGGGCTTC TTCCTTAT (SEQ ID NO:3) specific for the 18-nucleotide target sequence of the L-6 bcr-abl junction. […]

[2] = test system: normal hematopoietic progenitor cells (normal bone marrow MNC); experiment: CFU-GM colony formation of normal hematopoietic progenitor cells; conditions: Table 3; 40 μg/ml at 0 h, 20 μg/ml 18 h later; 12 days; mean ± SD; control 263 ± 10
Description: (§1) Normal bone marrow mononuclear cells (MNC) were obtained by aspiration from consenting volunteers and enriched for hematopoietic progenitors as previously reported by numerous investigators (Zamecnick et al., Proc. Natl. Acad. Sci. U.S.A. 83, 4143-4147 (1986); Caracciolo et al., J. Clin. Invest. 85, 55-61 (1990)). In brief, marrow cells were subjected to Ficoll-Hypaque density gradient sedimentation and then depleted of adherent monocyte-macrophage and T-lymphocytes by adherence to plastic Petri dishes and rosetting with neuraminidase-treated sheep red blood cells, respectively. Philadelphia chromosome-positive blast cells were isolated by Ficoll-Hypaque density gradient sedimentation from a CML patient in blast crisis (L-6 type junction). […] The residual non-blast cells had the morphological appearance of small lymphocytes. 25,000 MNC and 25,000 CML blast cells were combined and incubated with bcr-abl breakpoint-Specific antisense oligomer (SEQ ID NO:3) (40 μg/ml at h 0; 20 μg/ml 18 hours later) or with a 4 nucleotide mismatch bcr-abl antisense oligomer (SEQ ID NO:2) (40 μg/ml at 0 h; 20 μg/ml 18 hours later) or left untreated. […] At the end of the incubation period colonies were counted. […]

[3] = test system: CML blast crisis cells (L-6 type junction); experiment: CFU-L colony formation of CML blast crisis cells (Example 3); conditions: Table 3; 40 μg/ml at 0 h, 20 μg/ml 18 h later; 12 days; mean ± SD; control 806 ± 70
Description: Normal bone marrow mononuclear cells (MNC) were obtained by aspiration from consenting volunteers and enriched for hematopoietic progenitors as previously reported by numerous investigators (Zamecnick et al., Proc. Natl. Acad. Sci. U.S.A. 83, 4143-4147 (1986); Caracciolo et al., J. Clin. Invest. 85, 55-61 (1990)). In brief, marrow cells were subjected to Ficoll-Hypaque density gradient sedimentation and then depleted of adherent monocyte-macrophage and T-lymphocytes by adherence to plastic Petri dishes and rosetting with neuraminidase-treated sheep red blood cells, respectively. Philadelphia chromosome-positive blast cells were isolated by Ficoll-Hypaque density gradient sedimentation from a CML patient in blast crisis (L-6 type junction). […] The residual non-blast cells had the morphological appearance of small lymphocytes. 25,000 MNC and 25,000 CML blast cells were combined and incubated with bcr-abl breakpoint-Specific antisense oligomer (SEQ ID NO:3) (40 μg/ml at h 0; 20 μg/ml 18 hours later) or with a 4 nucleotide mismatch bcr-abl antisense oligomer (SEQ ID NO:2) (40 μg/ml at 0 h; 20 μg/ml 18 hours later) or left untreated. Four hours after the second addition of oligonucleotides to the cultures, cells were seeded into duplicate methylcellulose dishes containing IL-3 (20 U/ml) and GM-CSF (5 ng/ml) and allowed to grow for an additional 12 days. At the end of the incubation period colonies were counted.
The data is shown in Table 3, below, wherein values represent mean ± standard deviation of duplicate control cultures (no oligonucleotide added) and duplicate experimental cultures from two separate experiments. Colony forming unit-granulocyte macrophage (CFU-GM)-derived colonies consisted of 50 or more cell aggregates, while CFU-GM-derived clusters were defined as aggregates of between 4 and 40 cells. These are normal hematopoietic colonies derived from progenitors with the capability to differentiate along the granulocytic and macrophage lineages. […]

[4] = test system: 1:1 mixtures of normal marrow progenitors and CML blast crisis cells; experiment: CFU-GM + CFU-L colony formation of 1:1 mixtures of normal marrow progenitors and CML blast crisis cells; conditions: Table 3; 1:1 mixture; 40 μg/ml at 0 h, 20 μg/ml 18 h later; 12 days; mean ± SD; control 978 ± 24
Description: as §1

[5] = test system: 1:1 mix of normal MNC and CML blast crisis cells; experiment: Morphology (Giemsa staining) of cells from residual colonies
Description: as §1

In the case of “SEQ ID NO:2: mismatched (4 nucleotide substitutions) bcr-abl antisense oligomer GAACGGCATC TACGTTAT (antisense GAACGGCATCTACGTTAT; further chemistry not given here) [reference compound]”, the “colonies of blast cells formed” value [1] is reported as “formed numerous colonies of blast cells”, the “Colonies or Clusters, CFU-GM” value [2] is reported as 265 ± 6 colonies or clusters and the “Colonies or Clusters, CFU-L (colonies formed from CML blast crisis cells)” value [3] is reported as 786 ± 23 colonies or clusters. For the same substance, the “Colonies or Clusters, CFU-GM + CFU-L” value [4] was 900 ± 46 colonies or clusters and the “morphology of cells isolated from residual colonies” value [5] was “heterogeneous and consisted of blast cells and a variety of differentiating elements”.
